Assays:
Assay type in all cases: cell-based
human TLR7 = target: T1, human TLR7 (Homo sapiens, UniProt Q9NYK1); assay: TLR7 inhibition reporter assay (HEK-Blue SEAP); details: cells overexpressing human TLR7, SEAP reporter, stimulated with gardiquimod 7.5 μM, 22 hour incubation
T1 construct: host or cells: HEK-Blue cells
T1 sequence (Q9NYK1 27-1049): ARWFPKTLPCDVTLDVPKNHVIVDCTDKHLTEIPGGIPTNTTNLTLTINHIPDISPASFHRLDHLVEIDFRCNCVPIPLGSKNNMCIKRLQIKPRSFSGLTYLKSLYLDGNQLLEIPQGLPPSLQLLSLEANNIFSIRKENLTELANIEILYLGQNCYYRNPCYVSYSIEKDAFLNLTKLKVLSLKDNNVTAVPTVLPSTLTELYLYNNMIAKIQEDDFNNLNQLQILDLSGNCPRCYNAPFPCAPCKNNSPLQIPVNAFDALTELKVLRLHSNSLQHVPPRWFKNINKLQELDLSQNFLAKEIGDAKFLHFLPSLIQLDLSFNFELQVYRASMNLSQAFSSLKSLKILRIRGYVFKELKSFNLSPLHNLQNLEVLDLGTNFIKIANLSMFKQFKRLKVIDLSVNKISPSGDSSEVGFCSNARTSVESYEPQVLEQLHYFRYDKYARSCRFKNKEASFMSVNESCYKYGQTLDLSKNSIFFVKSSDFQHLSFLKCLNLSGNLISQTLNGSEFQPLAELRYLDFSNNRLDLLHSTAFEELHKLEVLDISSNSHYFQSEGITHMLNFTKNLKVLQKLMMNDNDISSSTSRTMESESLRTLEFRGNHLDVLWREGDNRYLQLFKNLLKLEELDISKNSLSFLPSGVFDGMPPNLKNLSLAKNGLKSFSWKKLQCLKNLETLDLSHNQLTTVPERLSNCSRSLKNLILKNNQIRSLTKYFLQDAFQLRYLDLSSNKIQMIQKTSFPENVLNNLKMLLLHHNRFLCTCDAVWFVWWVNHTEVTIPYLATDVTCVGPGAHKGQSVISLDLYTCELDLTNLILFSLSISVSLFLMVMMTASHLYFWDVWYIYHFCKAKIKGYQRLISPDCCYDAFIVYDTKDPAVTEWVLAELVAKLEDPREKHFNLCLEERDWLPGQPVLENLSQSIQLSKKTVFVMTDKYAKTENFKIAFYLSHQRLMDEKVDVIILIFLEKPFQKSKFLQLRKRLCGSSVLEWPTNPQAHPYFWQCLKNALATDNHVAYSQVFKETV
Outline: (§1)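 HEK-Blue cells expressing human TLR7, TLR8 or TLR9 with NF-κB/AP-1-driven SEAP reporter pre-treated 30 min at room temperature with compound (0.05 nM–50 μM), then stimulated with gardiquimod 7.5 μM (TLR7), R848 15.9 μM (TLR8) or ODN2006 5 nM (TLR9). SEAP read after 22 h at 37 °C; % inhibition relative to agonist+DMSO and reference-inhibitor wells.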

human TLR8 = target: T2, human TLR8 (Homo sapiens, UniProt Q9NR97); assay: TLR8 inhibition reporter assay (HEK-Blue SEAP); details: cells overexpressing human TLR8, SEAP reporter, stimulated with R848 15.9 μM, 22 hour incubation
T2 construct: host or cells: HEK-Blue cells
T2 sequence (Q9NR97 27-1041): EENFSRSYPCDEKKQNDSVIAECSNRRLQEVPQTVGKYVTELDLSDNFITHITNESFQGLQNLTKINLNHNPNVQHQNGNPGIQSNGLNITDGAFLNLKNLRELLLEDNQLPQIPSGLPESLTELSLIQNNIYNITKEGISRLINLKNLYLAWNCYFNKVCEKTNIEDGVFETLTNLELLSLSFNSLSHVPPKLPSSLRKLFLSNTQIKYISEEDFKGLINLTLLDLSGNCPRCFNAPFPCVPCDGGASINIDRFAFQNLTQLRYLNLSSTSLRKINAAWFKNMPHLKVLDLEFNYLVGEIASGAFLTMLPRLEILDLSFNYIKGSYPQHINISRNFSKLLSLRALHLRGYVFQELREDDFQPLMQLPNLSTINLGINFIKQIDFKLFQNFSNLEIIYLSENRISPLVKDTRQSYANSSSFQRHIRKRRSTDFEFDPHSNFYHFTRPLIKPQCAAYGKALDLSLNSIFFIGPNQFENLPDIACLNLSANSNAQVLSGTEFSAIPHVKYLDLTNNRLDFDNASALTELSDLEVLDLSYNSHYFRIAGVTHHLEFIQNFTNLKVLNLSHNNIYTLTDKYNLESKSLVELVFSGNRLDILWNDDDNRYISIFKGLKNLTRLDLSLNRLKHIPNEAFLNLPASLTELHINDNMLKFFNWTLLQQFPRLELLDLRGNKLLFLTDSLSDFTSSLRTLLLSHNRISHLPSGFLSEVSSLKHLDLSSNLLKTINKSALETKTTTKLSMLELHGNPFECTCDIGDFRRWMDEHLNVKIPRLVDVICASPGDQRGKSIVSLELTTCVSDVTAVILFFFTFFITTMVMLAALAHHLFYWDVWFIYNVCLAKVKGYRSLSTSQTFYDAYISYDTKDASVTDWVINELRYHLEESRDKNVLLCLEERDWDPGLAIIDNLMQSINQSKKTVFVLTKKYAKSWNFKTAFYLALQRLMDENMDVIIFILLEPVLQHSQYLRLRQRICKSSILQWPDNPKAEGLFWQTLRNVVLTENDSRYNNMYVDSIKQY
Outline: as §1

human TLR9 = target: T3, human TLR9 (Homo sapiens, UniProt Q9NR96); assay: TLR9 inhibition reporter assay (HEK-Blue SEAP); details: cells overexpressing human TLR9, SEAP reporter, stimulated with ODN2006 5 nM, 22 hour incubation
T3 construct: host or cells: HEK-Blue cells
T3 sequence (Q9NR96 26-1032): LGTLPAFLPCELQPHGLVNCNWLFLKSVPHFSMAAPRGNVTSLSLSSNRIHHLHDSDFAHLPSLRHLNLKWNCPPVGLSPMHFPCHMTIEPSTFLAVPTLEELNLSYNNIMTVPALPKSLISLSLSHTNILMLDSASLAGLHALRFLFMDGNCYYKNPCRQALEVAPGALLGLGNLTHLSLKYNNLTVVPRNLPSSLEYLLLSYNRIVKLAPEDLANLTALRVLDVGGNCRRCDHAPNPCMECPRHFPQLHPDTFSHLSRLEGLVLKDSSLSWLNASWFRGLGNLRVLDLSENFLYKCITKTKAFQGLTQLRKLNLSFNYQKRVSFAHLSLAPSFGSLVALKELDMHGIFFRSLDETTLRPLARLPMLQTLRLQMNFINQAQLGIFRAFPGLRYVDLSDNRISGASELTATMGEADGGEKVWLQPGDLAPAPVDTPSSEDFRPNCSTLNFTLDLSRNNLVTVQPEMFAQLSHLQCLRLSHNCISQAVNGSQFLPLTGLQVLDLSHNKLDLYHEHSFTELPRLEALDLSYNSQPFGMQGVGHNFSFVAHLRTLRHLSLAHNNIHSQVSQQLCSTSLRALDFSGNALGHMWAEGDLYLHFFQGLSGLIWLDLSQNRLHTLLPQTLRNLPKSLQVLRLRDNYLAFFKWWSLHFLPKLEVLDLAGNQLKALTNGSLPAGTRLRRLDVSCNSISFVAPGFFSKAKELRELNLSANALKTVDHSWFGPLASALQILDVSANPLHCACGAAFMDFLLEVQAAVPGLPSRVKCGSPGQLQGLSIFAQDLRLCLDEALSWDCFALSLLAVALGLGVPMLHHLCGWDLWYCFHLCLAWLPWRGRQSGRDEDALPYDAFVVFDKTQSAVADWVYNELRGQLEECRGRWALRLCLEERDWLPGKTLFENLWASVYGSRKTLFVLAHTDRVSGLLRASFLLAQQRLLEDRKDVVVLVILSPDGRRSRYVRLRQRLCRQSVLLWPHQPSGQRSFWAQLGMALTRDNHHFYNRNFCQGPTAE
Outline: as §1

Structure (SMILES) | IC50 (human TLR7) [nM] | IC50 (human TLR8) [nM] | IC50 (human TLR9) [nM]
CCc1c(-c2ccc(OC)c(OC)c2)[nH]c2ncc(C3CCN(C(=O)CN(C)C)CC3)nc12 [Example 4, 1-(4-(6-(3,4-dimethoxypbenyl)-7-ethyl-5H-pyrrolo[2,3-b]pyrazin-2-yl)piperidin-1-yl)-2-(dimethylamino)ethanone] | 100 to 1000 | 100 to 1000 | 1000 to 50000
CNC(=O)CN1CCC(c2ncc3[nH]c(-c4cc(OC)c5ncnn5c4)c(C(C)C)c3n2)CC1 [Example 35, 2-(4-(7-isopropyl-6-(8-methoxy-[1,2,4]triazolo[1,5-a]pyridin-6-yl)-5H-pyrrolo[3,2-d]pyritnidin-2-yl)piperidin-1-yl)-N-methylacetamide] | < 100 | < 100 | > 50000
Cc1cc(-c2[nH]c3cnc(C4CCNCC4)nc3c2C(C)C)cn(C)c1=O [Example 7, 5-(7-isopropyl-2-(piperidin-4-yl)-5H-pyrrolo[3,2-d]pyrimidin-6-yl)-1,3-dimethylpyridin-2(1H)-one] | < 100 | 100 to 1000 | 1000 to 50000
CCc1c(-c2ccc(OC)c(OC)c2)[nH]c2cnc(C(=O)N3CC4CNCC4C3)nc12 (stereo not drawn) [Example 55, (6-(3,4-dimethoxyphenyl)-7-ethyl-5H-pyrrolo[3,2-d]pyrimidin-2-yl)(hexahydropyrrolo[3,4-c]pyrrol-2(1H)-yl)methanone] | 1000 to 50000 | 1000 to 50000 | 1000 to 50000
CCc1c(-c2ccc(OC)c(OC)c2)[nH]c2nnc(C3CCNCC3)cc12 [Example 1, 6-(3,4-dimethoxyphenyl)-5-ethyl-3-(piperidin-4-yl)-7H-pyrrolo[2,3-c]pyridazine] | 100 to 1000 | 1000 to 50000 | 100 to 1000
CCc1c(-c2ccc(OC)c(OC)c2)[nH]c2cnc(-c3nnc(C[C@@H]4CCCN4)o3)nc12 [Example 45, (S)-2-(6-(3,4-dimethoxyphenyl)-7-ethyl-5H-pyrroIo[3,2-d]pyrimidin-2-yl)-5-(pyrrolidin-2-ylmethyl)-1,3,4-oxadiazole] | 1000 to 50000 | 1000 to 50000 | 1000 to 50000
COc1cc(-c2[nH]c3cnc(C4CCN(CC(=O)N(C)C)CC4)nc3c2C(C)C)cn2ncnc12 [Example 31, 2-(4-(7-isopropyl-6-(8-methoxy-[1,2,4]triazolo[1,5-a]pyridin-6-yl)-5H-pyrrolo[3,2-d]pyrimidin-2-yl)piperidin-1-yl)-N,N-dimethylacetamide] | < 100 | < 100 | 1000 to 50000
CCc1c(-c2ccc(OC)c(OC)c2)[nH]c2cnc(-c3nnc([C@H]4CCCNC4)o3)nc12 [Example 40, (S)-2-(6-(3,4-dimethoxyphenyl)-7-ethyl-5H-pyrrolo[3,2-d]pyrimidin-2-yl)-5-(piperidin-3-yl)-1,3,4-oxadiazole] | 100 to 1000 | 100 to 1000 | 100 to 1000
CCc1c(-c2ccc(OC)c(OC)c2)[nH]c2cnc(-c3nnc([C@@H]4CCCNC4)o3)nc12 [Example 43, (R)-2-(6-(3,4-dimethoxyphenyl)-7-ethyl-5H-pyrrolo[3,2-d]pyrimidin-2-yl)-5-(piperidin-3-yl)-1,3,4-oxadiazole] | 1000 to 50000 | 100 to 1000 | 1000 to 50000
Cc1c(-c2[nH]c3cnc(C4CCN(C(=O)CN(C)C)CC4)nc3c2C(C)C)cn2ncnc2c1C [Example 28, 1-(4-(6-(7,8-dimethyl-[1,2,4]triazolo[1,5-a]pyridin-6-yl)-7-isopropyl-5H-pyrrolo[3,2-d]pyrimidin-2-yl)piperidin-1-yl)-2-(dimethylamino)ethan-1-one] | < 100 | < 100 | 1000 to 50000
CCc1c(-c2ccc(OC)c(OC)c2)[nH]c2cnc(-c3nnc(CCCN(C)C)o3)nc12 [Example 37, 3-(5-(6-(3,4-dimethoxyphenyl)-7-ethyl-5H-pyrrolo[3,2-d]pyrimidin-2-yl)-1,3,4-oxadiazol-2-yl)-N,N-dimethylpropan-1-amine] | 1000 to 50000 | 100 to 1000 | 1000 to 50000
CCc1c(-c2ccc(OC)c(OC)c2)[nH]c2cnc(-c3nnc([C@@H]4CCNC4)o3)nc12 [Example 41, (R)-2-(6-(3,4-dimethoxyphenyl)-7-ethyl-5H-pyrrolo[3,2-d]pyrimidin-2-yl)-5-(pyrrolidin-3-yl)-1,3,4-oxadiazole] | 1000 to 50000 | 1000 to 50000 | 1000 to 50000
CCc1c(-c2ccc(OC)c(OC)c2)[nH]c2cnc(C3CCN(C4CCN(C(C)C)CC4)CC3)nc12 [Example 26, 6-(3,4-dimethoxyphenyl)-7-ethyl-2-(1′-isopropyl-[1,4′-bipiperidin]-4-yl)-5H-pyrrolo[3,2-d]pyrimidine] | < 100 | < 100 | 100 to 1000
CCc1c(-c2ccc(OC)c(OC)c2)[nH]c2cnc(C3CCN(Cc4c[nH]cn4)CC3)nc12 [Example 51, 2-(1-((1H-imidazol-4-yl)methyl)piperidin-4-yl)-6-(3,4-dimethoxyphenyl)-7-ethyl-5H-pyrrolo[3,2-d]pyrimidine] | 100 to 1000 | 100 to 1000 | 1000 to 50000

Source: US11299501B2 (BRISTOL-MYERS SQUIBB COMPANY, priority 2017, dated 2022)
